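Following 48 hours of exposure in 96-well plates, responses at five concentrations were used to interpolate endpoints linearly. GI50 marks 50% less growth. TGI: concentration producing complete growth inhibition.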
Key:
Assay in all cases: growth of human tumour cells (NCI), 48 h; in the data active = GI50 below about 0.43 µM; inactive = the rest
UACC-62 melanoma = system: UACC-62 melanoma
SR leukemia = system: SR leukemia
MOLT-4 leukemia = system: MOLT-4 leukemia
SNB-78 CNS = system: SNB-78 CNS
786-0 renal = system: 786-0 renal
UACC-257 melanoma = system: UACC-257 melanoma
A549 NSCLC = system: A549 NSCLC
CCRF-CEM leukemia = system: CCRF-CEM leukemia
RXF 393 renal = system: RXF 393 renal
HCT-116 colon = system: HCT-116 colon
NCI-H23 lung = system: NCI-H23 lung
OVCAR-4 ovarian = system: OVCAR-4 ovarian
DMS 273 small cell lung = system: DMS 273 small cell lung
SNB-75 CNS = system: SNB-75 CNS
IGROV1 ovarian = system: IGROV1 ovarian
SK-OV-3 ovarian = system: SK-OV-3 ovarian
SF-539 CNS = system: SF-539 CNS
SNB-19 CNS = system: SNB-19 CNS
SN12C renal = system: SN12C renal
HOP-62 NSCLC = system: HOP-62 NSCLC
KM20L2 colon = system: KM20L2 colon
M14 melanoma = system: M14 melanoma
TK-10 renal = system: TK-10 renal
HCT-15 colon = system: HCT-15 colon
OVCAR-3 ovarian = system: OVCAR-3 ovarian
EKVX NSCLC = system: EKVX NSCLC
LOX IMVI melanoma = system: LOX IMVI melanoma
RPMI-8226 leukemia = system: RPMI-8226 leukemia
HCC-2998 colon = system: HCC-2998 colon
OVCAR-8 ovarian = system: OVCAR-8 ovarian
DLD-1 colon = system: DLD-1 colon
KM12 colon = system: KM12 colon
NCI-H460 lung = system: NCI-H460 lung
SW-620 colon = system: SW-620 colon
M19-MEL melanoma = system: M19-MEL melanoma
UO-31 renal = system: UO-31 renal
SF-295 CNS = system: SF-295 CNS
NCI-H226 lung = system: NCI-H226 lung
DMS 114 small cell lung = system: DMS 114 small cell lung
LXFL 529 NSCLC = system: LXFL 529 NSCLC
COLO 205 colon = system: COLO 205 colon
U251 CNS = system: U251 CNS
HT29 colon = system: HT29 colon
SF-268 CNS = system: SF-268 CNS
SK-MEL-5 melanoma = system: SK-MEL-5 melanoma
OVCAR-5 ovarian = system: OVCAR-5 ovarian
SK-MEL-28 melanoma = system: SK-MEL-28 melanoma
ACHN renal = system: ACHN renal
NCI-H522 lung = system: NCI-H522 lung
SK-MEL-2 melanoma = system: SK-MEL-2 melanoma
CAKI-1 renal = system: CAKI-1 renal
HOP-92 NSCLC = system: HOP-92 NSCLC
K-562 leukemia = system: K-562 leukemia
MDA-MB-435 = system: MDA-MB-435
NCI/ADR-RES ovarian = system: NCI/ADR-RES ovarian
MALME-3M melanoma = system: MALME-3M melanoma
MDA-N = system: MDA-N
BT-549 breast = system: BT-549 breast
HL-60(TB) leukemia = system: HL-60(TB) leukemia
A498 renal = system: A498 renal
HS 578T breast = system: HS 578T breast
T-47D breast = system: T-47D breast
MCF7 breast = system: MCF7 breast
MDA-MB-231 breast = system: MDA-MB-231 breast
DU-145 prostate = system: DU-145 prostate
PC-3 prostate = system: PC-3 prostate

CC(=O)[O-].CC(=O)[O-].CC(=O)[O-].CC(=O)[O-].CO.CO.CO.[Rh+2].[Rh+2].c1ccc(-c2ccccn2)nc1
> 100 µM: TGI (UACC-62 melanoma) | TGI (SR leukemia) | TGI (MOLT-4 leukemia) | TGI (SNB-78 CNS) | TGI (786-0 renal) | TGI (UACC-257 melanoma) | TGI (A549 NSCLC) | TGI (CCRF-CEM leukemia) | TGI (RXF 393 renal) | TGI (HCT-116 colon) | TGI (NCI-H23 lung) | TGI (OVCAR-4 ovarian) | TGI (DMS 273 small cell lung) | TGI (SNB-75 CNS) | TGI (IGROV1 ovarian) | TGI (SK-OV-3 ovarian) | TGI (SF-539 CNS) | TGI (SNB-19 CNS) | TGI (SN12C renal) | TGI (HOP-62 NSCLC) | TGI (KM20L2 colon) | TGI (M14 melanoma) | TGI (TK-10 renal) | TGI (HCT-15 colon) | TGI (OVCAR-3 ovarian) | TGI (EKVX NSCLC) | TGI (LOX IMVI melanoma) | TGI (RPMI-8226 leukemia) | TGI (HCC-2998 colon) | TGI (OVCAR-8 ovarian) | TGI (DLD-1 colon) | TGI (KM12 colon) | TGI (NCI-H460 lung) | TGI (SW-620 colon) | TGI (M19-MEL melanoma) | TGI (UO-31 renal) | TGI (SF-295 CNS) | TGI (NCI-H226 lung) | TGI (DMS 114 small cell lung) | TGI (LXFL 529 NSCLC) | TGI (COLO 205 colon) | TGI (U251 CNS) | TGI (HT29 colon) | TGI (SF-268 CNS) | TGI (SK-MEL-5 melanoma) | TGI (OVCAR-5 ovarian) | TGI (SK-MEL-28 melanoma) | TGI (ACHN renal)
inactive: GI50 (UACC-62 melanoma) > 100 µM | GI50 (SR leukemia) > 100 µM | GI50 (MOLT-4 leukemia) > 100 µM | GI50 (SNB-78 CNS) > 100 µM | GI50 (786-0 renal) > 100 µM | GI50 (UACC-257 melanoma) > 100 µM | GI50 (A549 NSCLC) > 100 µM | GI50 (CCRF-CEM leukemia) 44.6 µM | GI50 (RXF 393 renal) > 100 µM | GI50 (HCT-116 colon) > 100 µM | GI50 (NCI-H23 lung) > 100 µM | GI50 (OVCAR-4 ovarian) > 100 µM | GI50 (DMS 273 small cell lung) > 100 µM | GI50 (SNB-75 CNS) > 100 µM | GI50 (IGROV1 ovarian) > 100 µM | GI50 (SK-OV-3 ovarian) > 100 µM | GI50 (SF-539 CNS) > 100 µM | GI50 (SNB-19 CNS) > 100 µM | GI50 (SN12C renal) > 100 µM | GI50 (HOP-62 NSCLC) > 100 µM | GI50 (KM20L2 colon) > 100 µM | GI50 (M14 melanoma) > 100 µM | GI50 (TK-10 renal) > 100 µM | GI50 (HCT-15 colon) > 100 µM | GI50 (OVCAR-3 ovarian) > 100 µM | GI50 (EKVX NSCLC) > 100 µM | GI50 (LOX IMVI melanoma) > 100 µM | GI50 (RPMI-8226 leukemia) > 100 µM | GI50 (HCC-2998 colon) > 100 µM | GI50 (OVCAR-8 ovarian) > 100 µM | GI50 (DLD-1 colon) > 100 µM | GI50 (KM12 colon) > 100 µM | GI50 (NCI-H460 lung) > 100 µM | GI50 (SW-620 colon) > 100 µM | GI50 (M19-MEL melanoma) > 100 µM | GI50 (UO-31 renal) > 100 µM | GI50 (SF-295 CNS) > 100 µM | GI50 (NCI-H226 lung) > 100 µM | GI50 (DMS 114 small cell lung) 62.2 µM | GI50 (LXFL 529 NSCLC) 55.6 µM | GI50 (COLO 205 colon) > 100 µM | GI50 (U251 CNS) > 100 µM | GI50 (HT29 colon) > 100 µM | GI50 (SF-268 CNS) > 100 µM | GI50 (SK-MEL-5 melanoma) > 100 µM | GI50 (OVCAR-5 ovarian) > 100 µM | GI50 (SK-MEL-28 melanoma) > 100 µM | GI50 (ACHN renal) > 100 µM

CCN(CC)C(=O)c1ccc(C)c(N=NN(C)C)c1
> 100 µM: TGI (UACC-62 melanoma) | TGI (786-0 renal) | TGI (UACC-257 melanoma) | TGI (A549 NSCLC) | TGI (HCT-116 colon) | TGI (NCI-H23 lung) | TGI (OVCAR-4 ovarian) | TGI (DMS 273 small cell lung) | TGI (IGROV1 ovarian) | TGI (SF-539 CNS) | TGI (SNB-19 CNS) | TGI (SN12C renal) | TGI (HOP-62 NSCLC) | TGI (M14 melanoma) | TGI (TK-10 renal) | TGI (NCI-H522 lung) | TGI (HCT-15 colon) | TGI (OVCAR-3 ovarian) | TGI (EKVX NSCLC) | TGI (LOX IMVI melanoma) | TGI (HCC-2998 colon) | TGI (OVCAR-8 ovarian) | TGI (DLD-1 colon) | TGI (KM12 colon) | TGI (NCI-H460 lung) | TGI (SW-620 colon) | TGI (M19-MEL melanoma) | TGI (SK-MEL-2 melanoma) | TGI (UO-31 renal) | TGI (SF-295 CNS) | TGI (LXFL 529 NSCLC) | TGI (U251 CNS) | TGI (HT29 colon) | TGI (SF-268 CNS) | TGI (SK-MEL-5 melanoma) | TGI (CAKI-1 renal) | TGI (SK-MEL-28 melanoma) | TGI (HOP-92 NSCLC) | TGI (ACHN renal)

CC(=O)N1C(=O)/C(=C\C(=O)c2ccc(Cl)cc2)c2ccccc21
69.3 µM: TGI (A498 renal)
38.8 µM: TGI (M14 melanoma)
36.5 µM: TGI (MDA-MB-435)
32.6 µM: TGI (RXF 393 renal) | TGI (MALME-3M melanoma)
30.6 µM: TGI (OVCAR-3 ovarian)
22.9 µM: TGI (A549 NSCLC)
31.5 µM: TGI (HCC-2998 colon)
35 µM: TGI (SNB-75 CNS) | TGI (HOP-92 NSCLC)
36.2 µM: TGI (EKVX NSCLC)
30.3 µM: TGI (MDA-MB-231 breast)
35.3 µM: TGI (KM12 colon)
5.9 µM: TGI (LOX IMVI melanoma)
97.1 µM: TGI (RPMI-8226 leukemia)
35.9 µM: TGI (OVCAR-4 ovarian)
32.5 µM: TGI (NCI-H460 lung)
40.5 µM: TGI (SF-268 CNS)
35.8 µM: TGI (SK-MEL-28 melanoma)
39.8 µM: TGI (SK-MEL-5 melanoma)
5.24 µM: TGI (HL-60(TB) leukemia)
20.7 µM: TGI (HT29 colon)
48.4 µM: TGI (OVCAR-5 ovarian)
41.2 µM: TGI (HOP-62 NSCLC)
52.7 µM: TGI (SF-295 CNS)
26.9 µM: TGI (NCI-H522 lung)
> 76.2 µM: TGI (MCF7 breast)
> 57.3 µM: TGI (HS 578T breast)
28.6 µM: TGI (UACC-62 melanoma)
15.9 µM: TGI (786-0 renal)
47.6 µM: TGI (T-47D breast)
6.51 µM: TGI (SR leukemia)
30.9 µM: TGI (MDA-N)
59.9 µM: TGI (SK-OV-3 ovarian)
30.5 µM: TGI (TK-10 renal)
23.4 µM: TGI (HCT-15 colon)
23.6 µM: TGI (ACHN renal)
7.58 µM: TGI (CCRF-CEM leukemia)
31.7 µM: TGI (NCI-H23 lung)
38.9 µM: TGI (SK-MEL-2 melanoma)
30.7 µM: TGI (UACC-257 melanoma)
32.3 µM: TGI (HCT-116 colon)
33.2 µM: TGI (IGROV1 ovarian)
29.6 µM: TGI (UO-31 renal)
9.09 µM: TGI (MOLT-4 leukemia)
44.5 µM: TGI (NCI-H226 lung)
33.7 µM: TGI (OVCAR-8 ovarian) | TGI (DU-145 prostate)
32.1 µM: TGI (SN12C renal)
27.6 µM: TGI (CAKI-1 renal)
61.1 µM: TGI (SW-620 colon)
19.6 µM: TGI (PC-3 prostate)
18.4 µM: TGI (BT-549 breast)
37.2 µM: TGI (SF-539 CNS) | TGI (U251 CNS)
53.5 µM: TGI (NCI/ADR-RES ovarian)
26.7 µM: TGI (COLO 205 colon)
> 57.2 µM: TGI (SNB-19 CNS)
> 100 µM: TGI (K-562 leukemia)

Reference: PubChem BioAssay (NCI)
